According to patent US11414416B1, “Compounds and uses thereof” (Foghorn Therapeutics Inc., priority 2019, dated 2022):

target: Nanoluciferase-BRD9 fusion protein (Homo sapiens (Human), UniProt Q9H8M2); assay: SYO1 BRD9 NanoLuc degradation assay; format: cell-based; settings: Table 5C; SYO-1 cells expressing 3×FLAG-NLuc-BRD9, 6 hours; read-out: SYO1 BRD9-NanoLuc degradation IC50
How it was run: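 Degradation was read as loss of nanoluciferase signal (Nano-Glo) after 6 h compound exposure in a stable SYO-1 line carrying 3×FLAG-NLuc-BRD9 (8000 cells/well). Normalised between DMSO (high) and a 1 μM known BRD9 degrader (low).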

Chain of Nanoluciferase-BRD9 fusion protein (Q9H8M2 whole entry, the tested form may be a part): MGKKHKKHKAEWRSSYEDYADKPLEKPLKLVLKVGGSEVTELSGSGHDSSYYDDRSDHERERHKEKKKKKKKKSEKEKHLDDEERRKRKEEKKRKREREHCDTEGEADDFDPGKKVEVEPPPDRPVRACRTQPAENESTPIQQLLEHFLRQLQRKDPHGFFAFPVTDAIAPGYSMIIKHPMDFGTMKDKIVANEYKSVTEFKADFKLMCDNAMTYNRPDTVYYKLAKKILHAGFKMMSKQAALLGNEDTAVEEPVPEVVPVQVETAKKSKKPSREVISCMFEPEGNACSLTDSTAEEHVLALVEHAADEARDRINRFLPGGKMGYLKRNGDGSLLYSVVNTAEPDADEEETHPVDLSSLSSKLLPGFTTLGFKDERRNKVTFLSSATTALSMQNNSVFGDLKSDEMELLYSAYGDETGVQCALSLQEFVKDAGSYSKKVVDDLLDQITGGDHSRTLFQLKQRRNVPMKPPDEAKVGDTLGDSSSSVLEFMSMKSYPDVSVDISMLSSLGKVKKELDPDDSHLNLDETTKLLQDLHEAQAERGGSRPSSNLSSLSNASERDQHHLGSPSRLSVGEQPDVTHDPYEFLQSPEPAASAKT

Row | DC50 [nM] | Structure (SMILES)
1 | < 10 | COc1cc(-c2cc(C)c(=O)n(C)c2C)cc(OC)c1CN1CCC2(C1)CN(c1ccc3c(c1)C(=O)N(C1CCC(=O)NC1=O)C3)C2 (stereo not drawn) [Compound D396]
2 | < 10 | CCCn1cc(-c2cc(OC)c(CN3CCC4(C3)CN(c3ccc5c(c3)C(=O)N(C3CCC(=O)NC3=O)C5)C4)c(OC)c2)cc(C(F)F)c1=O (stereo not drawn) [Compound D401]
3 | < 10 | COc1cc(-c2cc(C(F)F)c(=O)n(C)c2)cc(OC)c1CN1CCC2(C1)CN(c1ccc3c(c1)C(=O)N(C1CCC(=O)NC1=O)C3)C2 (stereo not drawn) [Compound D403]
4 | < 10 | C=CCn1cc(-c2cc(OC)c(CN3CCC4(C3)CN(c3ccc5c(c3)C(=O)N(C3CCC(=O)NC3=O)C5)C4)c(OC)c2)cc(C(F)F)c1=O (stereo not drawn) [Compound D404]
5 | < 10 | COc1cc(-c2cc(C(F)F)c(=O)n(C)c2)cc(OC)c1CN1CCC2(C1)CN(c1ccc3c(c1)C(=O)N(C1CCC(=O)NC1=O)C3=O)C2 (stereo not drawn) [Compound D406]
6 | < 10 | COc1cc(-c2cc(C(F)F)c(=O)n(C)c2)cc(OC)c1CN1CCC(CN2CCC3(CC2)CN(c2ccc4c(c2)C(=O)N(C2CCC(=O)NC2=O)C4)C3)CC1 (stereo not drawn) [Compound D407]
7 | < 10 | COc1cc(-c2cc(C(F)F)c(=O)n(C)c2)cc(OC)c1CN1CCC2(C1)CN(c1ccc3c(c1)CN(C1CCC(=O)NC1=O)C3=O)C2 (stereo not drawn) [Compound D408]
8 | < 10 | COc1cc(-c2cc(C(F)F)c(=O)n(C)c2C)cc(OC)c1CN1CCC2(C1)CN(c1ccc3c(c1)C(=O)N(C1CCC(=O)NC1=O)C3)C2 (stereo not drawn) [Compound D409]
9 | < 10 | COc1cc(-c2cc(C(F)F)c(=O)n(C)c2C)cc(OC)c1CN1CCC(CN2CCC3(CC2)CN(c2ccc4c(c2)C(=O)N(C2CCC(=O)NC2=O)C4)C3)CC1 (stereo not drawn) [Compound D410]

Second part, the compound before the results:

Row | Structure (SMILES) | DC50 [nM]
10 | COc1cc(-c2cn(C)c(=O)c3cnccc23)cc(OC)c1CN1CCC2(CC1)CN(c1cc(C(=O)NC3CCC(=O)NC3=O)ncn1)C2 (stereo not drawn) [Compound D395] | < 10
11 | COc1cc(-c2cc(C)c(=O)n(C)c2C)cc(OC)c1CN1CCC(CN2CCC3(CC2)CN(c2ccc4c(c2)C(=O)N(C2CCC(=O)NC2=O)C4)C3)CC1 (stereo not drawn) [Compound D397] | < 10
12 | COc1cc(-c2cc(C(F)F)c(=O)n(C)c2)cc(OC)c1CN1CCN(CCC2CCN(c3ccc4c(c3)C(=O)N(C3CCC(=O)NC3=O)C4=O)CC2)CC1 (stereo not drawn) [Compound D398] | < 10
13 | COc1cc(-c2cc(C(F)F)c(=O)n(C)c2)cc(OC)c1CN1CCN(CCC2CCN(c3ccc4c(c3)C(=O)N(C3CCC(=O)NC3=O)C4)CC2)CC1 (stereo not drawn) [Compound D399] | < 10
14 | COc1cc(-c2cn(C)c(=O)c3cn(C)nc23)cc(OC)c1CN1CCN(CCC2CCN(c3ccc4c(c3)C(=O)N(C3CCC(=O)NC3=O)C4)CC2)CC1 (stereo not drawn) [Compound D400] | < 10
15 | COc1cc(-c2cn(C)c(=O)c3cn(C)nc23)cc(OC)c1CN1CC(CN2CCC3(CC2)CN(c2ccc4c(c2)C(=O)N(C2CCC(=O)NC2=O)C4)C3)C1 (stereo not drawn) [Compound D402] | < 10
16 | COc1cc(-c2cn(C)c(=O)c3cn(C)nc23)cc(OC)c1CN1CCC(CN2CCC3(CC2)CN(c2ccc4c(c2)C(=O)N(C2CCC(=O)NC2=O)C4)C3)CC1 (stereo not drawn) [Compound D405] | < 10
17 | COc1cc(-c2cn(C)c(=O)c3cnn(C)c23)cc(OC)c1CN1CCC2(CC1)CN(c1ccc3c(c1)CN(C1CCC(=O)NC1=O)C3=O)C2 (stereo not drawn) [Compound D411] | < 10
18 | COc1cc(-c2cn(C)c(=O)c3cn(C)nc23)cc(OC)c1CN1CCC2(CC1)CN(c1ccc3c(c1)CN(C1CCC(=O)NC1=O)C3=O)C2 (stereo not drawn) [Compound D412] | < 10
19 | COc1cc(-c2cn(C)c(=O)c3cnn(C)c23)cc(OC)c1CN1CCC2(CC1)CN(c1ccc3c(c1)C(=O)N(C1CCC(=O)NC1=O)C3=O)C2 (stereo not drawn) [Compound D413] | < 10
20 | COc1cc(-c2cn(C)c(=O)c3cnn(C)c23)cc(OC)c1CN1CCC2(CC1)CN(c1ccc3c(c1)C(=O)N(C1CCC(=O)NC1=O)C3)C2 (stereo not drawn) [Compound D414] | < 10
21 | COc1cc(-c2cn(C)c(=O)c3cn(C)nc23)cc(OC)c1CN1CCC2(CC1)CN(c1ccc3c(c1)C(=O)N(C1CCC(=O)NC1=O)C3=O)C2 (stereo not drawn) [Compound D415] | < 10
